Assays:
Assay type in all cases: cell-based
Escherichia coli = assay: A.O.A.C. Sanitizing Test (Germicidal and Detergent Sanitizing Action of Disinfectants, para. 960.09); conditions: use solutions, 0.1 wt-% fatty acid + 0.1 wt-% lactic acid (88% w/v) in distilled water, solution pH 2.96-2.97
From the text: (§1) A sanitizer is an agent that reduces the number of bacterial contaminants to safe levels as judged by public health requirements. Practically, a sanitizer must result in 99.999% reduction (5 log order reduction) for given organisms as defined by Germicidal and Detergent Sanitizing Action of Disinfectants, Official Methods of Analysis of the Association of Official Analytical Chemists, paragraph 960.09 and applicable sections, 15th Edition, 1990 (EPA Guideline 91-2). In common practice, substances that are applied to food contact surfaces for antimicrobial purposes must meet this requirement. It has now been discovered that a sanitizer comprising octanoic acid (C8) plus a food additive organic or inorganic acid buffer does indeed meet all of the criteria set forth for a food grade sanitizer. […] Table 1A is a summary of compositions and Table 1B is a summary of their bactericidal activity as determined by the official A.O.A.C. Sanitizing Test. (Germicidal and Detergent Sanitizing Action of Disinfectants, Official Methods of Analysis of the Association of Official Analytical Chemists, paragraph 960.09 and applicable sections, 15th Edition, 1990, EPA guideline 91-2). The octanoic acid is indeed very unique, peaking out at seven log order reductions with both a gram positive (Staphylococcus aureus) and a gram negative (Escherichia coli) bacteria and passes the test requirement for a sanitizing agent. […] Examples IA through IE represent use solutions of the sanitizers.

Staphylococcus aureus = assay: as above; conditions: use solutions, 0.1 wt-% fatty acid + 0.1 wt-% lactic acid (88% w/v) in distilled water, solution pH 2.96-2.97
From the text: as §1

Aspergillus niger = assay: Fungicidal activity, A.O.A.C. Disinfection Test Method; conditions: spores of Aspergillus niger, compared with the other test organisms of Table 5B
From the text: A disinfectant is an agent that kills all vegetative cells including most recognized pathogenic microorganisms. As such, it must pass a more stringent bactericidal test; the A.O.A.C. Use Dilution Methods, Official Methods of Analysis of the Association of Official Analytical Chemists, paragraph 955.14 and applicable sections, 15th Edition, 1990 (EPA Guideline 91-2). […] Disinfection Test Method. […]

SMILES	Results Log Reductions Col. Forming Units E. coli (Escherichia coli)	Results Log Reductions Col. Forming Units S. aureus (Staphylococcus aureus)	concentration for complete kill (Aspergillus niger)
CCCCCCCCCC(=O)O [decanoic acid, reference compound]	possesses some activity	possesses some activity	
CCCCCCCC(=O)O [octanoic acid, Octanoic acid]	seven	seven	required a higher concentration for complete kill

— patent EP0643558B1, “SANITIZING COMPOSITIONS” (ECOLAB INC., priority 1991, dated 1992)
